# Measured values published in patent US10253039B2, “Inhibitors of bacterial DNA gyrase with efficacy against gram-negative bacteria” (priority 2014, dated 2019).
# Where two headings read alike, the source gives them in different places.
# Columns and labels:
# Type in all cases: cell-based
# E. coli BW25113 = assay: MIC, microdilution in 96-well plates; conditions: Escherichia coli, read-out: MIC
# Experimental: (§1) A microdilution method in 96-well plates was used and the MIC protocol established by the Clinical Laboratory Standards Institute was followed. From a growing subculture, a 1:10000 inoculum of each strain in Luria-Bertani media was prepared and aliquoted 100 μL in 4 columns of wells, except for the top row wells, which contained 200 μL of inoculum. A solution of gyramide C2 was aliquoted into 3 of the wells containing 200 μL and DMSO was added to the 4th well. The liquid in each of wells was mixed with a multi-channel pipet and 100 μL was transferred to the next well and mixed. The 2-fold dilution was continued down the 96-well plate until 100 μL was left, which was discarded. The plates were incubated at 37° C. with shaking for 16-18 hours. The MIC was determined as the lowest concentration that inhibited growth and had no turbidity by visual inspection.
# (§2) Minimum inhibitory concentrations of various gyramide compounds against 20 strains of bacteria were determined using the procedure described above.
# Edwardsiella tarda = assay: MIC, microdilution in 96-well plates
# Experimental: as §1, §2
# [1] = tested on: Staphylococcus epidermidis; assay: MIC, 20-strain panel
# Experimental: as §1, §2
# [2] = tested on: Staphylococcus saprophyticus subsp. saprophyticus; assay: MIC, 20-strain panel
# Experimental: as §1, §2
# [3] = tested on: Klebsiella pneumoniae subsp. pneumoniae; assay: MIC, 20-strain panel
# Experimental: as §1, §2
# Shigella flexneri = assay: MIC, 20-strain panel
# Experimental: as §1, §2
# E. coli JW5503 (deltolC) = assay: MIC, 20-strain panel; conditions: Escherichia coli
# Experimental: as §1, §2
# Streptococcus pyogenes = assay: MIC, 20-strain panel
# Experimental: as §1, §2
# [4] = tested on: Salmonella enterica subsp. enterica typhimurium; assay: MIC, 20-strain panel
# Experimental: as §1, §2
# E. coli MG1655 = assay: MIC, 20-strain panel; conditions: Escherichia coli, read-out: MIC
# Experimental: as §1, §2
# [5] = tested on: Staphylococcus aureus subsp. aureus; assay: MIC, 20-strain panel; conditions: read-out: MIC
# Experimental: as §1, §2
# Streptococcus agalactiae = assay: MIC, 20-strain panel
# Experimental: as §1, §2
# [6] = Klebsiella pneumoniae subsp. pneumoniae
# [7] = Salmonella enterica subsp. enterica Typhimurium
# [8] = Staphylococcus aureus subsp. aureus
# [9] = E: Klebsiella pneumoniae subsp. pneumoniae
# [10] = F: Salmonella enterica subsp. enterica Typhimurium
# [11] = H: Staphylococcus aureus subsp. aureus
compound,measurement,setting,value
N#Cc1cc(S(=O)(=O)N[C@@H]2CCN(Cc3ccc(OC4CC4)cc3)C2)ccc1F [Compound 166],MIC,"E. coli BW25113; BW25113, E. coli BW25113",> 8 µg/mL
same,MIC,Edwardsiella tarda,> 8 µg/mL
same,MIC,[1],> 8 µg/mL
same,MIC,[2],> 8 µg/mL
same,MIC,[3]; [6],> 8 µg/mL
same,MIC,Shigella flexneri,> 8 µg/mL
same,MIC,E. coli JW5503 (deltolC); E. coli JW5503 (deltolC),2 µg/mL
same,MIC,Streptococcus pyogenes,> 8 µg/mL
same,MIC,[4]; [7],~8 µg/mL
same,MIC,"E. coli MG1655; MG1655, E. coli MG1655",> 8 µg/mL
same,MIC,[5]; [8],> 8 µg/mL
same,MIC,Streptococcus agalactiae,> 8 µg/mL
O=S(=O)(N[C@@H]1CCN(Cc2cn(-c3ccccc3)nn2)C1)c1cccc(OC(F)(F)F)c1 [Compound 129],MIC,"E. coli BW25113; BW25113, E. coli BW25113",> 8 µg/mL
same,MIC,Edwardsiella tarda,> 8 µg/mL
same,MIC,[1],> 8 µg/mL
same,MIC,[2],> 8 µg/mL
same,MIC,[3]; [6],> 8 µg/mL
same,MIC,Shigella flexneri,> 8 µg/mL
same,MIC,E. coli JW5503 (deltolC); E. coli JW5503 (deltolC),> 8 µg/mL
same,MIC,Streptococcus pyogenes,> 8 µg/mL
same,MIC,[4]; [7],> 8 µg/mL
same,MIC,"E. coli MG1655; MG1655, E. coli MG1655",> 8 µg/mL
same,MIC,[5]; [8],> 8 µg/mL
same,MIC,Streptococcus agalactiae,> 8 µg/mL
O=S(=O)(N[C@@H]1CCN(Cc2ccc(SC(F)(F)F)cc2)C1)c1cccc(OC(F)(F)F)c1 [Compound 55],MIC,"E. coli BW25113; BW25113, B: E. coli BW25113",> 8 µg/mL
same,MIC,Edwardsiella tarda; D: Edwardsiella tarda,> 8 µg/mL
same,MIC,[1],> 8 µg/mL
same,MIC,[2],> 8 µg/mL
same,MIC,[3]; [9],> 8 µg/mL
same,MIC,Shigella flexneri; G: Shigella flexneri,> 8 µg/mL
same,MIC,E. coli JW5503 (deltolC); C: E. coli JW5503 (deltolC),8 µg/mL
same,MIC,Streptococcus pyogenes,> 8 µg/mL
same,MIC,[4]; [10],> 8 µg/mL
same,MIC,"E. coli MG1655; MG1655, A: E. coli MG1655",> 8 µg/mL
same,MIC,[5]; [11],> 8 µg/mL
same,MIC,Streptococcus agalactiae,> 8 µg/mL
N#Cc1cccc(S(=O)(=O)N[C@@H]2CCN(Cc3ccc(OC4CCC4)cc3)C2)c1 [Compound 109],MIC,"E. coli BW25113; BW25113, B: E. coli BW25113",> 8 µg/mL
same,MIC,Edwardsiella tarda; D: Edwardsiella tarda,> 8 µg/mL
same,MIC,[1],> 8 µg/mL
same,MIC,[2],> 8 µg/mL
same,MIC,[3]; [9],> 8 µg/mL
same,MIC,Shigella flexneri; G: Shigella flexneri,> 8 µg/mL
same,MIC,E. coli JW5503 (deltolC); C: E. coli JW5503 (deltolC),0.5 µg/mL
same,MIC,Streptococcus pyogenes,> 8 µg/mL
same,MIC,[4]; [10],8 µg/mL
same,MIC,"E. coli MG1655; MG1655, A: E. coli MG1655",> 8 µg/mL
same,MIC,[5]; [11],> 8 µg/mL
same,MIC,Streptococcus agalactiae,> 8 µg/mL
CC(C)Oc1ccc(CN2CC[C@@H](NS(=O)(=O)c3cc(F)cc(C(F)(F)F)c3)C2)cc1 [Compound 78],MIC,"E. coli BW25113; BW25113, B: E. coli BW25113",> 8 µg/mL
same,MIC,Edwardsiella tarda; D: Edwardsiella tarda,> 8 µg/mL
same,MIC,[1],> 8 µg/mL
same,MIC,[2],> 8 µg/mL
same,MIC,[3]; [9],> 8 µg/mL
same,MIC,Shigella flexneri; G: Shigella flexneri,> 8 µg/mL
same,MIC,E. coli JW5503 (deltolC); C: E. coli JW5503 (deltolC),~8 µg/mL
same,MIC,Streptococcus pyogenes,> 8 µg/mL
same,MIC,[4]; [10],> 8 µg/mL
same,MIC,"E. coli MG1655; MG1655, A: E. coli MG1655",> 8 µg/mL
same,MIC,[5]; [11],> 8 µg/mL
same,MIC,Streptococcus agalactiae,> 8 µg/mL
CC(=O)c1cccc(S(=O)(=O)N[C@@H]2CCN(Cc3ccc(-c4ccccc4)cc3)C2)c1 [Compound 44],MIC,"E. coli BW25113; BW25113, B: E. coli BW25113",> 8 µg/mL
same,MIC,Edwardsiella tarda; D: Edwardsiella tarda,> 8 µg/mL
same,MIC,[1],> 8 µg/mL
same,MIC,[2],> 8 µg/mL
same,MIC,[3]; [9],> 8 µg/mL
same,MIC,Shigella flexneri; G: Shigella flexneri,> 8 µg/mL
same,MIC,E. coli JW5503 (deltolC); C: E. coli JW5503 (deltolC),0.25 µg/mL
same,MIC,Streptococcus pyogenes,> 8 µg/mL
same,MIC,[4]; [10],8 µg/mL
same,MIC,"E. coli MG1655; MG1655, A: E. coli MG1655",> 8 µg/mL
same,MIC,[5]; [11],> 8 µg/mL
same,MIC,Streptococcus agalactiae,> 8 µg/mL
CN1C(=O)Cc2cc(S(=O)(=O)N[C@@H]3CCN(Cc4ccc(OC5CC5)cc4)C3)ccc21 [Compound 181],MIC,"E. coli BW25113; BW25113, E. coli BW25113",> 8 µg/mL
same,MIC,Edwardsiella tarda,> 8 µg/mL
same,MIC,[1],> 8 µg/mL
same,MIC,[2],> 8 µg/mL
same,MIC,[3]; [6],> 8 µg/mL
same,MIC,Shigella flexneri,> 8 µg/mL
same,MIC,E. coli JW5503 (deltolC); E. coli JW5503 (deltolC),> 8 µg/mL
same,MIC,Streptococcus pyogenes,> 8 µg/mL
same,MIC,[4]; [7],> 8 µg/mL
same,MIC,"E. coli MG1655; MG1655, E. coli MG1655",> 8 µg/mL
same,MIC,[5]; [8],> 8 µg/mL
same,MIC,Streptococcus agalactiae,> 8 µg/mL
O=S(=O)(N[C@@H]1CCN(Cc2ccc(-c3ccccc3Cl)cc2)C1)c1cccc(C(F)(F)F)c1 [Compound 69],MIC,"E. coli BW25113; BW25113, B: E. coli BW25113",> 8 µg/mL
same,MIC,Edwardsiella tarda; D: Edwardsiella tarda,> 8 µg/mL
same,MIC,[1],4 µg/mL
same,MIC,[2],> 8 µg/mL
same,MIC,[3]; [9],> 8 µg/mL
same,MIC,Shigella flexneri; G: Shigella flexneri,> 8 µg/mL
same,MIC,E. coli JW5503 (deltolC); C: E. coli JW5503 (deltolC),8 µg/mL
same,MIC,Streptococcus pyogenes,~8 µg/mL
same,MIC,[4]; [10],> 8 µg/mL
same,MIC,"E. coli MG1655; MG1655, A: E. coli MG1655",> 8 µg/mL
same,MIC,[5]; [11],> 8 µg/mL
same,MIC,Streptococcus agalactiae,> 8 µg/mL
Cc1nn(C)c2ncc(S(=O)(=O)N[C@@H]3CCN(Cc4ccc(OC5CC5)cc4)C3)cc12 [Compound 157],MIC,"E. coli BW25113; BW25113, E. coli BW25113",> 8 µg/mL
same,MIC,Edwardsiella tarda,> 8 µg/mL
same,MIC,[1],> 8 µg/mL
same,MIC,[2],> 8 µg/mL
same,MIC,[3]; [6],> 8 µg/mL
same,MIC,Shigella flexneri,> 8 µg/mL
same,MIC,E. coli JW5503 (deltolC); E. coli JW5503 (deltolC),> 8 µg/mL
same,MIC,Streptococcus pyogenes,> 8 µg/mL
same,MIC,[4]; [7],> 8 µg/mL
same,MIC,"E. coli MG1655; MG1655, E. coli MG1655",> 8 µg/mL
same,MIC,[5]; [8],> 8 µg/mL
same,MIC,Streptococcus agalactiae,> 8 µg/mL
Cc1ccncc1S(=O)(=O)N[C@@H]1CCN(Cc2ccc(OC3CC3)cc2)C1 [Compound 153],MIC,"E. coli BW25113; BW25113, E. coli BW25113",> 8 µg/mL
same,MIC,Edwardsiella tarda,> 8 µg/mL
same,MIC,[1],> 8 µg/mL
same,MIC,[2],> 8 µg/mL
same,MIC,[3]; [6],> 8 µg/mL
same,MIC,Shigella flexneri,> 8 µg/mL
same,MIC,E. coli JW5503 (deltolC); E. coli JW5503 (deltolC),8 µg/mL
same,MIC,Streptococcus pyogenes,> 8 µg/mL
same,MIC,[4]; [7],> 8 µg/mL
same,MIC,"E. coli MG1655; MG1655, E. coli MG1655",> 8 µg/mL
same,MIC,[5]; [8],> 8 µg/mL
same,MIC,Streptococcus agalactiae,> 8 µg/mL
O=S(=O)(N[C@@H]1CCN(Cc2ccc(OC3CCOCC3)cc2)C1)c1cccc(C(F)(F)F)c1 [Compound 38],MIC,"E. coli BW25113; BW25113, B: E. coli BW25113",> 8 µg/mL
same,MIC,Edwardsiella tarda; D: Edwardsiella tarda,> 8 µg/mL
same,MIC,[1],> 8 µg/mL
same,MIC,[2],> 8 µg/mL
same,MIC,[3]; [9],> 8 µg/mL
same,MIC,Shigella flexneri; G: Shigella flexneri,> 8 µg/mL
same,MIC,E. coli JW5503 (deltolC); C: E. coli JW5503 (deltolC),1 µg/mL
same,MIC,Streptococcus pyogenes,> 8 µg/mL
same,MIC,[4]; [10],> 8 µg/mL
same,MIC,"E. coli MG1655; MG1655, A: E. coli MG1655",> 8 µg/mL
same,MIC,[5]; [11],> 8 µg/mL
same,MIC,Streptococcus agalactiae,> 8 µg/mL
N#Cc1cccc(S(=O)(=O)N[C@@H]2CCN(Cc3ccc(OC4CCOCC4)cc3)C2)c1 [Compound 54],MIC,"E. coli BW25113; BW25113, B: E. coli BW25113",> 8 µg/mL
same,MIC,Edwardsiella tarda; D: Edwardsiella tarda,> 8 µg/mL
same,MIC,[1],> 8 µg/mL
same,MIC,[2],> 8 µg/mL
same,MIC,[3]; [9],> 8 µg/mL
same,MIC,Shigella flexneri; G: Shigella flexneri,> 8 µg/mL
same,MIC,E. coli JW5503 (deltolC); C: E. coli JW5503 (deltolC),2 µg/mL
same,MIC,Streptococcus pyogenes,> 8 µg/mL
same,MIC,[4]; [10],8 µg/mL
same,MIC,"E. coli MG1655; MG1655, A: E. coli MG1655",> 8 µg/mL
same,MIC,[5]; [11],> 8 µg/mL
same,MIC,Streptococcus agalactiae,> 8 µg/mL
CC(C)Oc1c(Cl)cc(CN2CC[C@@H](NS(=O)(=O)c3cccc(OC(F)(F)F)c3)C2)cc1Cl [Compound 117],MIC,"E. coli BW25113; BW25113, B: E. coli BW25113",> 8 µg/mL
same,MIC,Edwardsiella tarda; D: Edwardsiella tarda,> 8 µg/mL
same,MIC,[1],> 8 µg/mL
same,MIC,[2],> 8 µg/mL
same,MIC,[3]; [9],> 8 µg/mL
same,MIC,Shigella flexneri; G: Shigella flexneri,> 8 µg/mL
same,MIC,E. coli JW5503 (deltolC); C: E. coli JW5503 (deltolC),> 8 µg/mL
same,MIC,Streptococcus pyogenes,> 8 µg/mL
same,MIC,[4]; [10],> 8 µg/mL
same,MIC,"E. coli MG1655; MG1655, A: E. coli MG1655",> 8 µg/mL
same,MIC,[5]; [11],> 8 µg/mL
same,MIC,Streptococcus agalactiae,> 8 µg/mL
